{
  "source": "patent US6908919B2",
  "about": "“Substituted polycyclic aryl and heteroaryl pyrazinones useful for selective inhibition of the coagulation cascade” (Pharmacia Corporation, priority 1999, dated 2005)",
  "data": [
    {"biological_target": "Human factor Xa (Homo sapiens, UniProt P00742)", "sequence (P00742 41-179 limits assumed)": "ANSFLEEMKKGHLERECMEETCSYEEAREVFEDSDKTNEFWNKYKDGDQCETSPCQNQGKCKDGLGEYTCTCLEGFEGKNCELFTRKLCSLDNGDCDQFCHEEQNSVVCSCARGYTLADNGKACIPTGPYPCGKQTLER", "sequence (P00742 235-488 limits assumed)": "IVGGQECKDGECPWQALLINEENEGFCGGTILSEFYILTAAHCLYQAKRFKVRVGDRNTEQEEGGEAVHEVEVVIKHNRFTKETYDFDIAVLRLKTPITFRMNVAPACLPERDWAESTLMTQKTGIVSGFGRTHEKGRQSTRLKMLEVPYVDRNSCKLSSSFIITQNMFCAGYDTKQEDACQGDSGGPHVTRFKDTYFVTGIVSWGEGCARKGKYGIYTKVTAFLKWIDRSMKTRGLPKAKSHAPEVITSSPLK", "assay": "Xa Assay", "format": "biochemical", "set-up": "purchased Enzyme Research Laboratories, South Bend Ind", "conditions": "at 30 µM", "units": {"% Inhibition Factor Xa (30 µM)": "%"}, "values": [
      {"smiles": "N=C(N)c1ccc(CNC(=O)Cn2c(-c3c(Cl)cccc3Cl)c(Cl)nc(NCCc3cccc(Cl)c3)c2=O)cc1", "note": "[Example 1517-24]", "% Inhibition Factor Xa (30 µM)": 0},
      {"smiles": "CC(C)CCNc1nc(Cl)c(-c2ccccc2)n(CC(=O)NCc2ccc(C(=N)N)cc2)c1=O", "note": "[Example 1517-40]", "% Inhibition Factor Xa (30 µM)": 0},
      {"smiles": "N=C(N)c1ccc(CNC(=O)Cn2c(-c3cccc(N)c3)c(Cl)nc(NC3CCCC3)c2=O)c(F)c1", "note": "[1543-34]", "% Inhibition Factor Xa (30 µM)": 20},
      {"smiles": "N=C(N)c1ccc(CNC(=O)Cn2c(-c3cccc(N)c3)c(Cl)nc(NCCCCN3CCCC3)c2=O)cc1", "note": "[1543-21]", "% Inhibition Factor Xa (30 µM)": 27},
      {"smiles": "N=C(N)c1ccc(CNC(=O)Cn2c(-c3ccccc3)c(Cl)nc(NC3CCCCC3)c2=O)cc1", "note": "[Example 1517-25]", "% Inhibition Factor Xa (30 µM)": 0},
      {"smiles": "CN(C)CCNc1nc(Cl)c(-c2cccc(N)c2)n(CC(=O)NCc2ccc(C(=N)N)cc2)c1=O", "note": "[1543-09]", "% Inhibition Factor Xa (30 µM)": 12},
      {"smiles": "CC(C)(C)CCNc1nc(Cl)c(-c2ccccc2)n(CC(=O)NCc2ccc(C(=N)N)cc2)c1=O", "note": "[Example 1517-41]", "% Inhibition Factor Xa (30 µM)": 0}
    ]},
    {"biological_target": "Human factor Xa (Homo sapiens, UniProt P00742)", "assay": "Xa Assay", "format": "biochemical", "set-up": "purchased Enzyme Research Laboratories, South Bend Ind", "conditions": "at 30 µM inhibitor", "values": [
      {"smiles": "N=C(N)c1ccc(CNC(=O)Cn2c(-c3ccccc3)c(Cl)nc(NCc3ccccc3OC(F)(F)F)c2=O)cc1", "note": "[1512-42]", "% Inhibition Factor Xa (30 µM)": "1%"},
      {"smiles": "N=C(N)c1ccc(CNC(=O)Cn2c(-c3cccc(Cl)c3)c(Cl)nc(NCCN3CCOCC3)c2=O)cc1", "note": "[1471-28]", "% Inhibition Factor Xa (30 µM)": "8%"},
      {"smiles": "Cc1c(Cl)nc(NCCc2ccncc2)c(=O)n1CC(=O)NCc1ccc(C(=N)N)cc1", "note": "[1471-5]", "% Inhibition Factor Xa (30 µM)": "12%"},
      {"smiles": "N=C(N)c1ccc(CNC(=O)Cn2c(-c3ccccc3)c(Cl)nc(NCC(c3ccccc3)c3ccccc3)c2=O)cc1", "note": "[1507-09]", "% Inhibition Factor Xa (30 µM)": "13%"},
      {"smiles": "N=C(N)c1ccc(CNC(=O)Cn2c(-c3ccccc3)c(Cl)nc(NCc3cc(C(F)(F)F)cc(C(F)(F)F)c3)c2=O)cc1", "note": "[1507-40]", "% Inhibition Factor Xa (30 µM)": "11%"},
      {"smiles": "CN(C)CCCNc1nc(Cl)c(-c2ccccc2)n(CC(=O)NCc2ccc(C(=N)N)cc2)c1=O", "note": "[1507-47]", "% Inhibition Factor Xa (30 µM)": "19%"},
      {"smiles": "N=C(N)c1ccc(CNC(=O)Cn2c(-c3ccccc3)c(Cl)nc(NCc3cc(F)cc(F)c3)c2=O)cc1", "note": "[1512-39]", "% Inhibition Factor Xa (30 µM)": "4%"},
      {"smiles": "N=C(N)c1ccc(CNC(=O)Cn2c(-c3ccccc3)c(Cl)nc(NCc3cc(F)c(F)c(F)c3)c2=O)cc1", "note": "[1512-32]", "% Inhibition Factor Xa (30 µM)": "5%"},
      {"smiles": "CC(C)Nc1nc(Cl)c(-c2cccnc2)n(CC(=O)NCc2ccc(C(=N)N)cc2)c1=O", "note": "[Example 75]", "% Inhibition Factor Xa (30 µM)": "9%"},
      {"smiles": "N=C(N)c1ccc(CNC(=O)Cn2c(-c3cccc(Cl)c3)c(Cl)nc(NCc3ccccc3)c2=O)cc1", "note": "[1471-25]", "% Inhibition Factor Xa (30 µM)": "31%"},
      {"smiles": "CCc1c(Cl)nc(NCCc2cccnc2)c(=O)n1CC(=O)NCc1ccc(C(=N)N)cc1", "note": "[1471-64]", "% Inhibition Factor Xa (30 µM)": "2%"},
      {"smiles": "Cc1c(Cl)nc(NCCc2ccc(Cl)cc2)c(=O)n1CC(=O)NCc1ccc(C(=N)N)cc1", "note": "[1471-2]", "% Inhibition Factor Xa (30 µM)": "10%"},
      {"smiles": "Cc1ccccc1-c1c(Cl)nc(NCCc2ccccc2)c(=O)n1CC(=O)NCc1ccc(C(=N)N)cc1", "note": "[Example 78]", "% Inhibition Factor Xa (30 µM)": "16% @ 30"},
      {"smiles": "N=C(N)c1ccc(CNC(=O)Cn2c(-c3ccc4ccccc4c3)c(Cl)nc(NCCc3ccccc3)c2=O)cc1", "note": "[Example 82]", "% Inhibition Factor Xa (30 µM)": "32% @ 30"},
      {"smiles": "Cc1c(Cl)nc(NCc2ccncc2)c(=O)n1CC(=O)NCc1ccc(C(=N)N)cc1", "note": "[1471-3]", "% Inhibition Factor Xa (30 µM)": "0%"},
      {"smiles": "CCCCNc1nc(Cl)c(-c2ccccc2)n(CC(=O)NCc2ccc(C(=N)N)cc2)c1=O", "note": "[1512-14]", "% Inhibition Factor Xa (30 µM)": "7%"},
      {"smiles": "N=C(N)c1ccc(CNC(=O)Cn2c(-c3cccc(Cl)c3)c(Cl)nc(NCc3ccccc3)c2=O)cc1", "note": "[Example 23]", "% Inhibition Factor Xa (30 µM)": "38% @ 30"},
      {"smiles": "Cc1c(Cl)nc(NCCc2cccc(Cl)c2)c(=O)n1CC(=O)NCc1ccc(C(=N)N)cc1", "note": "[1471-6]", "% Inhibition Factor Xa (30 µM)": "14%"},
      {"smiles": "N=C(N)c1ccc(CNC(=O)Cn2c(-c3ccc4c(c3)OCO4)c(Cl)nc(NCc3ccccc3)c2=O)cc1", "note": "[1471-41]", "% Inhibition Factor Xa (30 µM)": "34%"},
      {"smiles": "N=C(N)c1ccc(CNC(=O)Cn2c(-c3ccccc3)c(Cl)nc(NC3CCc4ccccc43)c2=O)cc1", "note": "(stereo not drawn) [1507-02]", "% Inhibition Factor Xa (30 µM)": "9%"},
      {"smiles": "N=C(N)c1ccc(CNC(=O)Cn2c(-c3cccc(Cl)c3)c(Cl)nc(NCc3ccncc3)c2=O)cc1", "note": "[1471-27]", "% Inhibition Factor Xa (30 µM)": "16%"},
      {"smiles": "N=C(N)c1ccc(CNC(=O)Cn2c(-c3ccsc3)c(Cl)nc(NCc3ccccc3)c2=O)cc1", "note": "[Example 1517-01]", "% Inhibition Factor Xa (30 µM)": "0%"},
      {"smiles": "N=C(N)c1ccc(CNC(=O)Cn2c(-c3cccc(N)c3)cnc(NC3CCC3)c2=O)cc1", "note": "[Example 92]", "% Inhibition Factor Xa (30 µM)": "18% @ 30"},
      {"smiles": "N=C(N)c1ccc(CNC(=O)Cn2c(-c3ccccc3)c(Cl)nc(NCc3ccccc3)c2=O)cc1", "note": "[1471-9]", "% Inhibition Factor Xa (30 µM)": "29%"},
      {"smiles": "N=C(N)c1ccc(CNC(=O)Cn2c(-c3ccccc3)c(Cl)nc(NCc3c(F)cccc3F)c2=O)cc1", "note": "[1512-43]", "% Inhibition Factor Xa (30 µM)": "9%"},
      {"smiles": "N=C(N)c1ccc(CNC(=O)Cn2c(-c3ccccc3)c(Cl)nc(NCCCc3ccccc3)c2=O)cc1", "note": "[1512-06]", "% Inhibition Factor Xa (30 µM)": "4%"},
      {"smiles": "N=C(N)c1ccc(CNC(=O)Cn2c(-c3cccc(Cl)c3)c(Cl)nc(NCCc3ccccc3)c2=O)cc1", "note": "[1471-31]", "% Inhibition Factor Xa (30 µM)": "17%"},
      {"smiles": "N=C(N)c1ccc(CNC(=O)Cn2c(-c3ccccc3)c(Cl)nc(NCCc3cccc(C(F)(F)F)c3)c2=O)cc1", "note": "[1512-41]", "% Inhibition Factor Xa (30 µM)": "4%"},
      {"smiles": "N=C(N)c1ccc(CNC(=O)Cn2c(-c3cccc(N)c3)c(Cl)nc(NC3CCC3)c2=O)cc1F", "note": "[Example 40]", "% Inhibition Factor Xa (30 µM)": "0%"},
      {"smiles": "N=C(N)c1ccc(CNC(=O)Cn2c(-c3ccc(Cl)cc3)c(Cl)nc(NCCc3ccccc3)c2=O)cc1", "note": "[1471-23]", "% Inhibition Factor Xa (30 µM)": "36%"},
      {"smiles": "N=C(N)c1ccc(CNC(=O)Cn2c(-c3ccccc3)c(Cl)nc(NCc3cc(Cl)ccc3Cl)c2=O)cc1", "note": "[1512-35]", "% Inhibition Factor Xa (30 µM)": "4%"},
      {"smiles": "CC(C)Nc1nc(Cl)c(-c2cccc(N)c2)n(CC(=O)NCc2ccc(C(=N)N)c(F)c2)c1=O", "note": "[Example 42]", "% Inhibition Factor Xa (30 µM)": "0%"},
      {"smiles": "Cc1c(N)cccc1-c1cnc(NC(C)C)c(=O)n1CC(=O)NCc1ccc(C(=N)N)cc1", "note": "[Example 98]", "% Inhibition Factor Xa (30 µM)": "10% @ 30"},
      {"smiles": "N=C(N)c1ccc(CNC(=O)Cn2c(-c3ccc4c(c3)OCO4)c(Cl)nc(NCCc3ccc(Cl)cc3)c2=O)cc1", "note": "[1471-42]", "% Inhibition Factor Xa (30 µM)": "15%"},
      {"smiles": "C[C@@H](C(=O)NCc1ccc(C(=N)N)cc1)n1c(-c2ccccc2)c(Cl)nc(NCc2ccccc2)c1=O", "note": "[Example 1517-03]", "% Inhibition Factor Xa (30 µM)": "0%"},
      {"smiles": "N=C(N)c1ccc(CNC(=O)Cn2c(-c3ccccc3)c(Cl)nc(NC3CCCc4ccccc43)c2=O)cc1", "note": "(stereo not drawn) [1507-16]", "% Inhibition Factor Xa (30 µM)": "18%"},
      {"smiles": "N=C(N)c1ccc(CNC(=O)Cn2c(-c3ccccc3)c(Cl)nc(NCCCn3ccnc3)c2=O)cc1", "note": "[1507-05]", "% Inhibition Factor Xa (30 µM)": "10%"},
      {"smiles": "N=C(N)c1ccc(CNC(=O)Cn2c(-c3ccccc3)c(Cl)nc(NCCCN3CCCC3=O)c2=O)cc1", "note": "[1507-19]", "% Inhibition Factor Xa (30 µM)": "4%"},
      {"smiles": "C[C@H](C(=O)NCc1ccc(C(=N)N)cc1)n1c(-c2ccccc2)c(Cl)nc(NC2CCC2)c1=O", "note": "[Example 1517-11]", "% Inhibition Factor Xa (30 µM)": "0%"},
      {"smiles": "N=C(N)c1ccc(CNC(=O)Cn2c(-c3cccc(Cl)c3)c(Cl)nc(NCCc3cccnc3)c2=O)cc1", "note": "[1471-32]", "% Inhibition Factor Xa (30 µM)": "25%"}
    ]},
    {"biological_target": "Human factor Xa (Homo sapiens, UniProt P00742)", "assay": "Xa Assay", "format": "biochemical", "set-up": "purchased Enzyme Research Laboratories, South Bend Ind", "conditions": "inhibitor at 100 µM", "units": {"% Inhibition Factor Xa (100 µM)": "%"}, "values": [
      {"smiles": "O=C(Cn1c(-c2ccc(Cl)cc2)c(Cl)nc(NCCc2cccc(Cl)c2)c1=O)NCCc1ccncc1", "note": "[Example E-0027]", "% Inhibition Factor Xa (100 µM)": 0}
    ]}
  ]
}
